The numbers were not newly measured in patent publication US20200330541A1, “COMPOSITIONS AND METHODS FOR MODULATING ENDOTHELIAL CELL MIGRATION AND ANGIOGENESIS” (University of Maine System Board of Trustees, priority 2017, published 2020), which cites them from elsewhere.

The conditions of series [1]: healthy humans after consumption of black currant.
In a further series the test system is endothelial cell. Particulars: through the JAK/STAT3 and MAPK signaling pathways.
The next series relates to RAC1. The note with it: smooth muscle cells, 24 hour exposure at 1 μmol/L and 100 μmol/L, compared to untreated cells.
For a further series, the system named is HUVEC. The note with it: 200 μM, 100 μM, and 50 μM.

As to `C[C@@H]1O[C@@H](OC[C@H]2O[C@@H](Oc3cc4c(O)cc(O)cc4[o+]c3-c3cc(O)c(O)c(O)c3)[C@H](O)[C@@H](O)[C@@H]2O)[C@H](O)[C@H](O)[C@H]1O` [D3R, delphinidin, 3-O-β-rutinoside], the “concentration in the plasma” value in series [1] is 73.7 ± 35.0 nM.
As for `O=c1cc(-c2ccc(O)cc2)oc2cc(O)cc(O)c12` [apigenin], the “endothelial cell migration, proliferation, and tubulogenesis” value in the series on endothelial cell is recorded as “inhibited”.
With `O=C(O)/C=C/c1ccc(O)c(O)c1` [caffeic acid], the RAC1 protein synthesis result with RAC1 was “significantly decreased”.
For `O=c1oc2c(O)c(O)cc3c(=O)oc4c(O)c(O)cc1c4c23` [ellagic acid], in the series with endothelial cell, the “endothelial cell migration, proliferation, and tubulogenesis” value was “inhibited”.
With `OC[C@H]1O[C@@H](Oc2cc3c(O)cc(O)cc3[o+]c2-c2ccc(O)cc2)[C@H](O)[C@@H](O)[C@@H]1O` [pelargonidin-3-glucoside], the “cell proliferation and smooth muscle cell migration” value in the series on smooth muscle cell is “inhibitory effect”.
As to “Delph inidin-3-(p-coumaroylrutinoside)-5-glucoside [nasunin]”, the HUVEC proliferation rate result in the series with HUVEC is on record as “inhibit”.
Turning to epigallocatechin-3 gallate, the “endothelial cell migration, proliferation, and tubulogenesis” value with endothelial cell was “inhibited”.
